Read-outs that look alike come from different tables or passages of the source.
Key:
[1] = test system: S6 Ribosomal Protein phosphorylation Ser235/236 in TSC1 null mouse embryo fibroblast (MEF) cells; test: Reverse protein array, S6 Ribosomal Protein phosphorylation in TSC1 null MEF cells; assay type: cell-based; conditions: 1 h, TSC1-/- MEFs, 60 minutes
Outline: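 Phospho-S6 (Ser235/236) was quantified by reverse protein array of cell lysates with a phospho-specific primary antibody. […]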

[2] = test system: PKB Ser473 phosphorylation in Rat1-myr-HA-p110 beta cells; test: Reverse protein array, PKB Ser473 phosphorylation in Rat1-myr-HA-p110 beta cells; assay type: cell-based; conditions: Rattus norvegicus, 0.5 h, 30 minutes compound incubation, read-out: p-PKB/IC50_beta

IC50 [2] [nM]	SMILES	IC50 ([1]; read-out: p-S6) [nM]	IC50 ([1]; read-out: p-S6 IC50) [nM]
10.7	CNc1ccc(-c2ccc3ncc4c(c3c2)n(-c2ccc(N3CCCC3)nc2C)c(=O)n4C)cn1 [Example 25.1, 3-Methyl-8-(6-methylamino-pyridin-3-yl)-1-(2-methyl-6-pyrrolidin-1-yl-pyridin-3-yl)-1,3-dihydro-imidazo[4,5-c]quinolin-2-one]	–	1
< 4.57	CCNc1cc(-c2ccc3ncc4c(c3c2)n(-c2ccc(N3CC(F)(F)C3)nc2C)c(=O)n4C)cnc1CO [Example 24.3, 1-[6-(3,3-Difluoro-azetidin-1-yl)-2-methyl-pyridin-3-yl]-8-(5-ethylamino-6-hydroxymethyl-pyridin-3-yl)-3-methyl-1,3-dihydro-imidazo[4,5-c]quinolin-2-one]	–	< 0.457
9.5	CNc1ccc(-c2ccc3ncc4c(c3c2)n(-c2ccc(NC(=O)COC)nc2C)c(=O)n4C)cn1 [Example 20.4, 2-Methoxy-N-{6-methyl-5-[3-methyl-8-(6-methylamino-pyridin-3-yl)-2-oxo-2,3-dihydro-imidazo[4,5-c]quinolin-1-yl]-pyridin-2-yl}-acetamide]	–	63
202	CCOc1ccc(-c2ccc3ncc4c(c3c2)n(-c2cncc(C)c2)c(=O)n4C)cn1 [Example 17.1, 8-(6-Ethoxy-pyridin-3-yl)-3-methyl-1-(5-methyl-pyridin-3-yl)-1,3-dihydro-imidazo[4,5-c]quinolin-2-one]	–	29
32.1	COCCOc1ccc(-n2c(=O)n(C)c3cnc4ccc(-c5cncc(N6CCC6)c5)cc4c32)c(C)n1 [Example 22.2, 8-(5-Azetidin-1-yl-pyridin-3-yl)-1-[6-(2-methoxy-ethoxy)-2-methyl-pyridin-3-yl]-3-methyl-1,3-dihydro-imidazo[4,5-c]quinolin-2-one]	–	2
141	CNc1ccc(-c2ccc3ncc4c(c3c2)n(-c2cnc(F)cc2C)c(=O)n4C)cn1 [Example 16.4, 1-(6-Fluoro-4-methyl-pyridin-3-yl)-3-methyl-8-(6-methylamino-pyridin-3-yl)-1,3-dihydro-imidazo[4,5-c]quinolin-2-one]	–	5
85.7	Cc1nc(N2CCC(O)C2)ccc1-n1c(=O)n(C)c2cnc3ccc(-c4cncc(OC(C)C)c4)cc3c21 (centres unmarked) [Example 27.1, 1-[6-(3-Hydroxy-pyrrolidin-1-yl)-2-methyl-pyridin-3-yl]-8-(5-isopropoxy-pyridin-3-yl)-3-methyl-1,3-dihydro-imidazo[4,5-c]quinolin-2-one]	–	2
14.2	CCOc1ccc(-c2ccc3ncc4c(c3c2)n(-c2ccc(N(C)C)nc2C)c(=O)n4C)cn1 [Example 19.3, 1-(6-Dimethylamino-2-methyl-pyridin-3-yl)-8-(6-ethoxy-pyridin-3-yl)-3-methyl-1,3-dihydro-imidazo[4,5-c]quinolin-2-one]	–	2
16.3	CNc1ncc(-c2ccc3ncc4c(c3c2)n(-c2ccc(NC(=O)COC)nc2C)c(=O)n4C)cn1 [Example 20.3, 2-Methoxy-N-{6-methyl-5-[3-methyl-8-(2-methylamino-pyrimidin-5-yl)-2-oxo-2,3-dihydro-imidazo[4,5-c]quinolin-1-yl]-pyridin-2-yl}-acetamide]	–	44
7	CCNc1cc(-c2ccc3ncc4c(c3c2)n(-c2ccc(N(C)CCOC)nc2C)c(=O)n4C)cnc1C [Example 15.6, 8-(5-Ethylamino-6-methyl-pyridin-3-yl)-1-{6-[(2-methoxy-ethyl)-methyl-amino]-2-methyl-pyridin-3-yl}-3-methyl-1,3-dihydro-imidazo[4,5-c]quinolin-2-one]	–	3

Continued, compound first:

SMILES	IC50 [2] [nM]	IC50 ([1]; read-out: p-S6) [nM]	IC50 ([1]; read-out: p-S6 IC50) [nM]
CNc1ncc(-c2ccc3ncc4c(c3c2)n(-c2cccnc2C)c(=O)n4C)cn1 [Example 2.2, 3-Methyl-8-(2-methylamino-pyrimidin-5-yl)-1-(2-methyl-pyridin-3-yl)-1,3-dihydro-imidazo[4,5-c]quinolin-2-one]	14.7	5.33	–
COc1nc(N2CCNCC2)ccc1-n1c(=O)n(C)c2cnc3ccc(-c4cnc(N(C)C)nc4)cc3c21 [Example 9.4, 8-(2-Dimethylamino-pyrimidin-5-yl)-1-(2-methoxy-6-piperazin-1-yl-pyridin-3-yl)-3-methyl-1,3-dihydro-imidazo[4,5-c]quinolin-2-one]	19.6	–	6
COc1ccc(-n2c(=O)n(C)c3cnc4ccc(-c5cnc(N)c(C(F)(F)F)c5)cc4c32)c(OC)n1 [Example 8.1, 8-(6-Amino-5-trifluoromethyl-pyridin-3-yl)-1-(2,6-dimethoxy-pyridin-3-yl)-3-methyl-1,3-dihydro-imidazo[4,5-c]quinolin-2-one]	12.8	1.07	–
CCOc1ccc(-c2ccc3ncc4c(c3c2)n(-c2cccnc2OC)c(=O)n4C)cn1 [Example 1.5, 8-(6-Ethoxy-pyridin-3-yl)-1-(2-methoxy-pyridin-3-yl)-3-methyl-1,3-dihydro-imidazo[4,5-c]quinolin-2-one]	38.8	48.6	–
CNc1ncc(-c2ccc3ncc4c(c3c2)n(-c2ccc(N(C)CCOC)nc2C)c(=O)n4C)cn1 [Example 15.2, 1-{6-[(2-Methoxy-ethyl)-methyl-amino]-2-methyl-pyridin-3-yl}-3-methyl-8-(2-methylamino-pyrimidin-5-yl)-1,3-dihydro-imidazo[4,5-c]quinolin-2-one]	21.4	–	7
Cc1ccc(-n2c(=O)n(C)c3cnc4ccc(-c5cncc(NC(C)C)c5)cc4c32)c(C)n1 [Example 14.8, 1-(2,6-Dimethyl-pyridin-3-yl)-8-(5-isopropylamino-pyridin-3-yl)-3-methyl-1,3-dihydro-imidazo[4,5-c]quinolin-2-one]	61.4	–	2
Cc1ccc(-n2c(=O)n(C)c3cnc4ccc(-c5cnc(N)c(C(F)(F)F)c5)cc4c32)c(C)n1 [Example 14.5, 8-(6-Amino-5-trifluoromethyl-pyridin-3-yl)-1-(2,6-dimethyl-pyridin-3-yl)-3-methyl-1,3-dihydro-imidazo[4,5-c]quinolin-2-one]	10.8	–	1
CCNc1cc(-c2ccc3ncc4c(c3c2)n(-c2ccc(OCCOC)nc2C)c(=O)n4C)cnc1C [Example 13.4, 8-(5-Ethylamino-6-methyl-pyridin-3-yl)-1-[6-(2-methoxy-ethoxy)-2-methyl-pyridin-3-yl]-3-methyl-1,3-dihydro-imidazo[4,5-c]quinolin-2-one]	< 4.57	–	1
CCOc1ccc(-c2ccc3ncc4c(c3c2)n(-c2ccc(C)nc2C)c(=O)n4C)cn1 [Example 14.2, 1-(2,6-Dimethyl-pyridin-3-yl)-8-(6-ethoxy-pyridin-3-yl)-3-methyl-1,3-dihydro-imidazo[4,5-c]quinolin-2-one]	21.7	–	16
COCCOc1ccc(-n2c(=O)n(C)c3cnc4ccc(-c5cnc(N)c(C(F)(F)F)c5)cc4c32)c(C)n1 [Example 13.2, 8-(6-Amino-5-trifluoromethyl-pyridin-3-yl)-1-[6-(2-methoxy-ethoxy)-2-methyl-pyridin-3-yl]-3-methyl-1,3-dihydro-imidazo[4,5-c]quinolin-2-one]	5.3	–	1
Cc1ncccc1-n1c(=O)n(C)c2cnc3ccc(-c4cnc5c(ccn5C)c4)cc3c21 [Example 2.14, 3-Methyl-1-(2-methyl-pyridin-3-yl)-8-(1-methyl-1H-pyrrolo[2,3-b]pyridin-5-yl)-1,3-dihydro-imidazo[4,5-c]quinolin-2-one]	13.1	8.74	–
CNc1ccc(-c2ccc3ncc4c(c3c2)n(-c2cccnc2OC)c(=O)n4C)cn1 [Example 1.4, 1-(2-Methoxy-pyridin-3-yl)-3-methyl-8-(6-methylamino-pyridin-3-yl)-1,3-dihydro-imidazo[4,5-c]quinolin-2-one]	9.81	8.24	–
CNc1ncc(-c2ccc3ncc4c(c3c2)n(-c2ccc(OCCOC)nc2C)c(=O)n4C)cn1 [Example 13.5, 1-[6-(2-Methoxy-ethoxy)-2-methyl-pyridin-3-yl]-3-methyl-8-(2-methylamino-pyrimidin-5-yl)-1,3-dihydro-imidazo[4,5-c]quinolin-2-one]	11.6	–	1.1
Cc1nc(F)ccc1-n1c(=O)n(C)c2cnc3ccc(-c4cnc(N)c(CO)c4)cc3c21 [Example 7.17, 8-(6-Amino-5-hydroxymethyl-pyridin-3-yl)-1-(6-fluoro-2-methyl-pyridin-3-yl)-3-methyl-1,3-dihydro-imidazo[4,5-c]quinolin-2-one]	212	–	5
CNc1ccc(-c2ccc3ncc4c(c3c2)n(-c2ccc(OCCOC)nc2C)c(=O)n4C)cn1 [Example 13.3, 1-[6-(2-Methoxy-ethoxy)-2-methyl-pyridin-3-yl]-3-methyl-8-(6-methylamino-pyridin-3-yl)-1,3-dihydro-imidazo[4,5-c]quinolin-2-one]	< 4.57	–	3
COc1ccc(-c2ccc3ncc4c(c3c2)n(-c2cccnc2OC)c(=O)n4C)cn1 [Example 1.1, 1-(2-Methoxy-pyridin-3-yl)-8-(6-methoxy-pyridin-3-yl)-3-methyl-1,3-dihydro-imidazo[4,5-c]quinolin-2-one]	65	24.5	–
CCNc1cc(-c2ccc3ncc4c(c3c2)n(-c2ccc(F)nc2C)c(=O)n4C)cnc1CO [Example 7.9, 8-(5-Ethylamino-6-hydroxymethyl-pyridin-3-yl)-1-(6-fluoro-2-methyl-pyridin-3-yl)-3-methyl-1,3-dihydro-imidazo[4,5-c]quinolin-2-one]	10	–	5
Cc1ccc(-n2c(=O)n(C)c3cnc4ccc(-c5cnc6c(ccn6C)c5)cc4c32)c(C)n1 [Example 14.7, 1-(2,6-Dimethyl-pyridin-3-yl)-3-methyl-8-(1-methyl-1H-pyrrolo[2,3-b]pyridin-5-yl)-1,3-dihydro-imidazo[4,5-c]quinolin-2-one]	20.8	–	3
